The assay addresses 17β-HSD1 (Homo sapiens (Human), UniProt P14061). Description: 17β-HSD1 test assay (recombinant protein from Sf9 insect cells, 3H-estrone/NADPH). It is filed as biochemical. The conditions noted are these: for inhibition at 1 µM: read-out: HSD 1 μM (% inhibition of HSD1), inhibitor 1 μM; for inhibition at 0.1 µM: read-out: HSD1 100 nM (% inhibition), inhibitor 100 nM. How it is done: Recombinant protein obtained from Sf9 insect cells (0.1 μg/ml) is incubated with 20 mM KH2PO4, pH 7.4, 30 nM ^3H-estrone and 1 mM NADPH for 30 min at RT in the presence of the potential inhibitor in a concentration of 1 μM or 100 nM. The stock solutions of the compounds are prepared in DMSO (dimethylsulfoxide) so that the final concentration of DMSO in the sample is 1%. After the prescribed incubation time, the reaction is quenched by adding trichloroacetic acid (10% final concentration). The samples are centrifuged in microtitration plates at 400 rpm for 10 min, and the supernatants are charged on a reversed-phase HPLC equipped with a Waters Symmetrie C18 column and Waters Sentry Guard column. The isocratic HPLC run is performed at RT with a flow rate of 1 ml/min and acetonitrile/water 48:52 as the eluent. The radioactivity was measured by means of a Packard Flow Scintillation Analyzer. […]

The structures appear in SMILES notation. Some results are limits rather than exact numbers.

Chain of 17β-HSD1 (P14061 whole entry): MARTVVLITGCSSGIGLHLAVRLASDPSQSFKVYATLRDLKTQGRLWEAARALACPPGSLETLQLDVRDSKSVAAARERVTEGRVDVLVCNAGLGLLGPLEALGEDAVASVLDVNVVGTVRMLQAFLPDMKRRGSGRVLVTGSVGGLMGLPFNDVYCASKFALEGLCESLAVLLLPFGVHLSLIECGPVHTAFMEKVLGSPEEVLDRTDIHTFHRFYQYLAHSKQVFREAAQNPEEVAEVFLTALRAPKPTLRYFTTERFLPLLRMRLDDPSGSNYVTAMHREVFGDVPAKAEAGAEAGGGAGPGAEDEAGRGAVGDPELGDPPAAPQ

Turning to `Oc1cccc(-c2cc3cc(O)ccc3[nH]2)c1` [Compound 1, 2-(3-Hydroxyphenyl)-1H-indol-5-ol], the inhibition (commonly the drop in the measured response relative to a control, in per cent) at 1 µM was less than 10% and the inhibition at 0.1 µM was less than 10%.
Take `Oc1ccc2cc(-c3ccccc3)ccc2c1` [Compound 2, 6-Phenylnaphthalene-2-ol]: the inhibition at 1 µM is less than 10% and the inhibition at 0.1 µM was less than 10%.
As for `Oc1cccc(-c2ccc3ccccc3c2)c1` [Compound 3, 3-Naphthalene-2-ylphenol], the inhibition at 1 µM worked out at 61% and the inhibition at 0.1 µM worked out at 26%.
For `Oc1ccc2cc(-c3cccnc3)ccc2c1` [Compound 4, 3-(6-hydroxy-2-naphthyl)pyridine], the inhibition at 1 µM was 31.6% and the inhibition at 0.1 µM is less than 10%.
For the compound `Oc1ccc2cc(-c3ccsc3)ccc2c1` [Compound 5], the inhibition at 1 µM was less than 10% and the inhibition at 0.1 µM is less than 10%.
On to `Oc1ccc2cc(-c3cccs3)ccc2c1` [Compound 6], for which the inhibition at 1 µM is less than 10% and the inhibition at 0.1 µM was less than 10%.
Consider `O=C(O)c1cccc(-c2ccc3cc(O)ccc3c2)c1` [Compound 7, 3-(6-hydroxy-2-naphthyl)benzoic acid], for which the inhibition at 1 µM is 75.8% and the inhibition at 0.1 µM was 36.3%.
In the same order, the values of `O=C(O)c1ccc(-c2ccc3cc(O)ccc3c2)cc1` [Compound 8, 4-(6-hydroxy-2-naphthyl)benzoic acid] are less than 10% and less than 10%.
In the same order, the values of `CC(=O)Nc1cccc(-c2ccc3cc(O)ccc3c2)c1` [Compound 9, N-[3-(6-hydroxy-2-naphthyl)phenyl]acetamide] are 18.5% and less than 10%.
For `OCc1cccc(-c2ccc3cc(O)ccc3c2)c1` [Compound 10, 6-[3-(hydroxymethyl)-phenyl]-2-naphthol], the inhibition at 1 µM was less than 10% and the inhibition at 0.1 µM was less than 10%.
Regarding `OCc1ccc(-c2ccc3cc(O)ccc3c2)cc1` [Compound 11, 6-[4-(hydroxymethyl)phenyl]-2-naphthol], the inhibition at 1 µM is 12.9% and the inhibition at 0.1 µM was less than 10%.
In the case of `Oc1cccc(-c2ccc3cc(O)ccc3n2)c1` [Compound 12, 2-(3-Hydroxyphenyl)quinolin-6-ol], the inhibition at 1 µM turned out to be 56.9% and the inhibition at 0.1 µM stood at 24%.
Consider `Oc1cccc(-c2cnc3ccccc3c2)c1` [Compound 13, 3-(Quinolin-3-yl)phenol], for which the inhibition at 1 µM was less than 10% and the inhibition at 0.1 µM is less than 10%.
In the case of `Oc1ccc(-c2cnc3ccccc3c2)cc1` [Compound 14, 4-(Quinolin-3-yl)phenol], the inhibition at 1 µM is less than 10% and the inhibition at 0.1 µM is less than 10%.
For `Oc1ccc(-c2cnc3cc(O)ccc3c2)cc1` [Compound 15, 3-(4-Hydroxyphenyl)quinolin-7-ol], the inhibition at 1 µM is less than 10% and the inhibition at 0.1 µM was less than 10%.
In the case of `Oc1cccc(-c2cnc3cc(O)ccc3c2)c1` [Compound 16, 3-(3-Hydroxyphenyl)quinolin-7-ol], the inhibition at 1 µM was 56.9% and the inhibition at 0.1 µM worked out at 24%.
On the same counts, the results for `Oc1cncc(-c2ccc3cc(O)ccc3c2)c1` [Compound 17, 5-(6-Hydroxynaphthalene-2-yl)pyridin-3-ol] are 57.7% and 30.3%.
In the same order, the values of `Oc1ccc2cc(-c3ccccc3O)ccc2c1` [Compound 18, 6-(2-Hydroxyphenyl)-2-naphthol] are less than 10% and less than 10%.
On the same counts, the results for `Oc1ccc(-c2ccc3cc(O)ccc3c2)cc1` [Compound 20, 6-(4-Hydroxyphenyl)-2-naphthol] are less than 10% and less than 10%.
`Oc1ccc(-c2ccc3c(O)cccc3c2)cc1` [Compound 21, 6-(4-Hydroxyphenyl)-1-naphthol]: the inhibition at 1 µM was less than 10% and the inhibition at 0.1 µM is less than 10%.
Consider `O=[N+]([O-])c1cccc(-c2ccc3cc(O)ccc3c2)c1` [Compound 22, 6-(3-Nitrophenyl)-naphthalene-2-ol], for which the inhibition at 1 µM is less than 10% and the inhibition at 0.1 µM is less than 10%.
Regarding `Nc1cccc(-c2ccc3cc(O)ccc3c2)c1` [Compound 23, 6-(3-Aminophenyl)-naphthalen-2-ol], the inhibition at 1 µM was less than 10% and the inhibition at 0.1 µM is less than 10%.
`Oc1cccc(-c2ccc3c(O)cccc3c2)c1` [Compound 24, 6-(3-Hydroxyphenyl)-1-naphthol]: the inhibition at 1 µM was less than 10% and the inhibition at 0.1 µM was less than 10%.
As for `COc1ccc(-c2ccc3c(O)cccc3c2)cc1` [Compound 25, 6-(4-Methoxyphenyl)-1-naphthol], the inhibition at 1 µM is less than 10% and the inhibition at 0.1 µM is less than 10%.
`Cc1cc(O)cc(-c2ccc3cc(O)ccc3c2)c1` [Compound 26, 6-(3-Hydroxy-5-methylphenyl)-2-naphthol]: the inhibition at 1 µM turned out to be 41.7% and the inhibition at 0.1 µM turned out to be 14.3%.
For the compound `Oc1ccc(-c2cc(O)cc(-c3ccc4cc(O)ccc4c3)c2)cc1` [Compound 27, 5-(6-Hydroxy-2-naphthyl)-1,1′-biphenyl-3,4′-diol], the inhibition at 1 µM is less than 10% and the inhibition at 0.1 µM is less than 10%.
With `Oc1cc(-c2ccc3cc(O)ccc3c2)cc(-c2ccc3cc(O)ccc3c2)c1` [Compound 28, 6-[3-Hydroxy-5-(6-hydroxy-2-naphthyl)phenyl]-2-naphthol], the inhibition at 1 µM is less than 10% and the inhibition at 0.1 µM was less than 10%.
On to `CNC(=O)c1cc(O)cc(-c2ccc3cc(O)ccc3c2)c1` [Compound 29, 3-Hydroxy-5-(6-hydroxynaphthalen-2-yl)-N-methylbenzamide], for which the inhibition at 1 µM is less than 10% and the inhibition at 0.1 µM is less than 10%.
Turning to `O=C(Nc1ccccc1)c1cc(O)cc(-c2ccc3cc(O)ccc3c2)c1` [Compound 30, 3-Hydroxy-5-(6-hydroxynaphthalene-2-yl)-N-phenylbenzamide], the inhibition at 1 µM was less than 10% and the inhibition at 0.1 µM is less than 10%.
Consider `CNC(=O)/C=C/c1cc(O)cc(-c2ccc3cc(O)ccc3c2)c1` [Compound 31, (E)-3-[3-Hydroxy-5-(6-hydroxynaphthalene-2-yl)phenyl]-N-methylacrylamide], for which the inhibition at 1 µM is less than 10% and the inhibition at 0.1 µM was less than 10%.
Consider `O=C(/C=C/c1cc(O)cc(-c2ccc3cc(O)ccc3c2)c1)Nc1ccccc1` [Compound 32, (E)-3-[3-Hydroxy-5-(6-hydroxynaphthalene-2-yl)phenyl]-N-phenylacrylamide], for which the inhibition at 1 µM was determined as 19.6% and the inhibition at 0.1 µM was less than 10%.
On the same counts, the results for `CNC(=O)CCc1cc(O)cc(-c2ccc3cc(O)ccc3c2)c1` [Compound 33, 3-[3-Hydroxy-5-(6-hydroxynaphthalene-2-yl)phenyl]-N-methylpropionamide] are less than 10% and less than 10%.
In the same order, the values of `O=C(CCc1cc(O)cc(-c2ccc3cc(O)ccc3c2)c1)Nc1ccccc1` [Compound 34, 3-[3-Hydroxy-5-(6-hydroxynaphthalene-2-yl)phenyl]-N-phenylpropionamide] are 13.6% and less than 10%.
In the same order, the values of `CC(=O)Nc1ccc(-c2ccc3cc(O)ccc3c2)cc1O` [Compound 35, N-[2-Hydroxy-4-(6-hydroxy-2-naphthyl)phenyl]acetamide] are less than 10% and less than 10%.
For `O=C(Nc1ccc(-c2ccc3cc(O)ccc3c2)cc1O)c1ccccc1` [Compound 36, N-[2-Hydroxy-4-(6-hydroxy-2-naphthyl)phenyl]benzamide], the inhibition at 1 µM was less than 10% and the inhibition at 0.1 µM was less than 10%.
With `CNC(=O)c1cc2cc(-c3cccc(O)c3)ccc2cc1O` [Compound 37, 3-Hydroxy-7-(3-hydroxyphenyl)-N-methyl-2-naphthamide], the inhibition at 1 µM is 18% and the inhibition at 0.1 µM is less than 10%.
On the same counts, the results for `O=C(Nc1ccccc1)c1cc2cc(-c3cccc(O)c3)ccc2cc1O` [Compound 38, 3-Hydroxy-7-(3-hydroxyphenyl)-N-phenyl-2-naphthamide] are 62% and 17%.
On the same counts, the results for `O=C(c1c(O)ccc2cc(-c3cccc(O)c3)ccc12)N1CCOCC1` [Compound 44, (2-Hydroxy-6-(3-hydroxyphenyl)naphthalene-1-yl)(morpholino)methanone] are 62.4% and 27.8%.
In the same order, the values of `O=C(c1c(O)ccc2cc(-c3cccc(O)c3)ccc12)N1CCNCC1` [Compound 45, (2-Hydroxy-6-(3-hydroxyphenyl)naphthalene-1-yl)(piperazin-1-yl)methanone] are 44.5% and less than 10%.
On to `O=C(Nc1nccs1)c1c(O)ccc2cc(-c3cccc(O)c3)ccc12` [Compound 46, 2-Hydroxy-6-(3-hydroxyphenyl)-N-(thiazol-2-yl)-1-naphthamide], for which the inhibition at 1 µM was 53% and the inhibition at 0.1 µM was less than 10%.
Take `Cc1noc(NC(=O)c2c(O)ccc3cc(-c4cccc(O)c4)ccc23)c1C` [Compound 47, N-(3,4-Dimethylisoxazol-5-yl)-2-hydroxy-6-(3-hydroxyphenyl)-1-naphthamide]: the inhibition at 1 µM turned out to be 70% and the inhibition at 0.1 µM worked out at 43%.

(Values after US8546392B2, “17Beta-hydroxysteroid dehydrogenase type 1 inhibitors for the treatment of hormone-related diseases” (Universitaet des Saarlandes, priority 2008, dated 2013).)
